Results reported in PubChem BioAssay (NCI).
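Briefly, cells in 96-well plates were exposed to five compound concentrations for 48 h, and endpoints were estimated by linear interpolation. TGI is the concentration that stops growth completely.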

What was measured:
Experiment in all cases: NCI tumour cell line growth inhibition, 48 h
DLD-1 colon = tested on: DLD-1 colon
DMS 114 small cell lung = tested on: DMS 114 small cell lung
DMS 273 small cell lung = tested on: DMS 273 small cell lung
HOP-18 NSCLC = tested on: HOP-18 NSCLC
KM20L2 colon = tested on: KM20L2 colon
SNB-78 CNS = tested on: SNB-78 CNS
XF 498 CNS = tested on: XF 498 CNS
P388 leukemia = tested on: P388 leukemia
P388/ADR leukemia = tested on: P388/ADR leukemia
SN12K1 renal = tested on: SN12K1 renal

c1ccc(C[P+]2(c3ccccc3)CCCCC2)cc1
TGI (DLD-1 colon): > 100 µM | TGI (DMS 114 small cell lung): > 100 µM | TGI (DMS 273 small cell lung): > 100 µM | TGI (HOP-18 NSCLC): > 100 µM | TGI (KM20L2 colon): > 100 µM | TGI (SNB-78 CNS): > 100 µM | TGI (XF 498 CNS): 98.2 µM

O=C1CCCn2c3ccccc3c3ccnc1c32
TGI (DLD-1 colon): > 100 µM | TGI (DMS 114 small cell lung): > 100 µM | TGI (DMS 273 small cell lung): > 100 µM | TGI (HOP-18 NSCLC): > 100 µM | TGI (KM20L2 colon): > 100 µM | TGI (P388 leukemia): > 93.9 µM | TGI (P388/ADR leukemia): > 100 µM | TGI (SN12K1 renal): > 100 µM | TGI (SNB-78 CNS): > 100 µM | TGI (XF 498 CNS): 74.5 µM

CC12CCC3=C(CSC4=C3CSc3ccccc34)C1=CCCC2=O (stereo not drawn)
TGI (DLD-1 colon): > 100 µM | TGI (DMS 114 small cell lung): > 100 µM | TGI (DMS 273 small cell lung): > 100 µM | TGI (HOP-18 NSCLC): > 100 µM | TGI (KM20L2 colon): > 100 µM | TGI (XF 498 CNS): 87.3 µM

COc1ccc(/C=N/N=C(N)N)c(C(=O)O)c1OC
TGI (DMS 114 small cell lung): > 100 µM | TGI (DMS 273 small cell lung): > 100 µM | TGI (HOP-18 NSCLC): > 100 µM | TGI (KM20L2 colon): > 100 µM | TGI (SNB-78 CNS): > 100 µM

CSCC[C@@H](NC(=O)[C@H](CC(C)C)NC(=O)C(Cc1cnc[nH]1)NC(=O)CNC(=O)[C@@H](NC(=O)[C@H](C)NC(=O)[C@H](Cc1cn(C=O)c2ccccc12)NC(=O)[C@H](CCC(N)=O)NC(=O)[C@@H](N)CC(N)=O)C(C)C)C(N)=O (stereo partly drawn)
TGI (DLD-1 colon): > 100 µM | TGI (DMS 114 small cell lung): > 100 µM | TGI (DMS 273 small cell lung): > 100 µM | TGI (HOP-18 NSCLC): > 100 µM | TGI (KM20L2 colon): > 100 µM | TGI (P388 leukemia): > 100 µM | TGI (P388/ADR leukemia): > 100 µM | TGI (SN12K1 renal): > 100 µM | TGI (SNB-78 CNS): > 100 µM | TGI (XF 498 CNS): > 100 µM
